Patent publication US6660692B1, “Herbicidal compositions comprising picolinafen” (Aventis CropScience S.A., priority 1999, dated 2003)

Experiments:
Type in all cases: in vivo
Conditions in all cases: 12 days after treatment
Setaria viridis (SETVI) [1] = experiment: Example 4 glasshouse trial post-emergence in wheat, (I) and bromoxynil
Description: (§1) A glasshouse trial was carried out post-emergence in wheat using a tank mixture comprising a phenoxypicolinamide derivative of formula I (at 1, 4 and 16 g/ha) and bromoxynil (at 12.5, 50 and 200 g/ha) which was sprayed on the following weed species:
(§2) Setaria viridis (SETVI), Avena fatua (AVEFA), Echinochloa crus-galli (ECHCG) and Galium aparine (GALAP).

[2] = test system: Echinochloa crus-galli (ECHCG); experiment: as above
Description: as §1, §2

Galium aparine (GALAP) [3] = experiment: as above
Description: as §1, §2

Avena fatua (AVEFA) [4] = experiment: as above
Description: as §1, §2

Setaria viridis (SETVI) [5] = experiment: Example 3 glasshouse trial post-emergence in wheat, (I) and isoproturon
Description: (§3) A glasshouse trial was carried out post-emergence in wheat using a tank mixture comprising a phenoxypicolinamide derivative of formula I (at 1, 4 and 16 g/ha) and isoproturon (at 125, 250 and 500 g/ha) which was sprayed on the following weed species:
(§4) Alopecurus myosuroides (ALOMY), Setaria viridis (SETVI), Avena fatua (AVEFA), Echinochloa crus-galli (ECHCG) and Galium aparine (GALAP).

[6] = test system: Echinochloa crus-galli (ECHCG); experiment: as above
Description: as §3, §4

Galium aparine (GALAP) [7] = experiment: as above
Description: as §3, §4

[8] = test system: Alopecurus myosuroides (ALOMY); experiment: as above
Description: as §3, §4

Avena fatua (AVEFA) [9] = experiment: as above
Description: as §3, §4

Galium aparine (GALAP) [10] = experiment: Example 5 glasshouse trial post-emergence in wheat, (I) and isoxaflutole
Description: (§5) A glasshouse trial was carried out post-emergence in wheat using a tank mixture comprising a phenoxypicolinamide derivative of formula I (at 1, 4 and 16 g/ha) and isoxaflutole (at 8, 16 and 32 g/ha) which was sprayed on the following weed species:
(§6) Alopecurus myosuroides (ALOMY) and Galium aparine (GALAP).

[11] = test system: Alopecurus myosuroides (ALOMY); experiment: as above
Description: as §5, §6

For `N#Cc1cc(Br)c(O)c(Br)c1` [Compound (III), 3,5-dibromo-4-hydroxybenzonitrile], the “% Weed Control SETVI” value (Setaria viridis (SETVI) [1]; 12.5 g ai/ha) was 0%, the “% Weed Control SETVI” value (Setaria viridis (SETVI) [1]; 50 g ai/ha) was 20% and the “% Weed Control SETVI” value (Setaria viridis (SETVI) [1]; 200 g ai/ha) was 20%. For the same molecule, the “% Weed Control ECHCG” value ([2]; 12.5 g ai/ha) was 0%, the “% Weed Control ECHCG” value ([2]; 50 g ai/ha) was 0% and the “% Weed Control ECHCG” value ([2]; 200 g ai/ha) was 20%. For the same molecule, the “% Weed Control GALAP” value (Galium aparine (GALAP) [3]; 12.5 g ai/ha) was 0%, the “% Weed Control GALAP” value (Galium aparine (GALAP) [3]; 50 g ai/ha) was 80% and the “% Weed Control GALAP” value (Galium aparine (GALAP) [3]; 200 g ai/ha) was 100%. For the same molecule, the “% Weed Control AVEFA” value (Avena fatua (AVEFA) [4]; 12.5 g ai/ha) was 0%, the “% Weed Control AVEFA” value (Avena fatua (AVEFA) [4]; 50 g ai/ha) was 0% and the “% Weed Control AVEFA” value (Avena fatua (AVEFA) [4]; 200 g ai/ha) was 10%.
For `CC(C)c1ccc(NC(=O)N(C)C)cc1` [Compound (II), 3-(4-isopropylphenyl)-1,1-dimethylurea], the “% Weed Control SETVI” value (Setaria viridis (SETVI) [5]; 125 g ai/ha) was 50%, the “% Weed Control SETVI” value (Setaria viridis (SETVI) [5]; 250 g ai/ha) was 70% and the “% Weed Control SETVI” value (Setaria viridis (SETVI) [5]; 500 g ai/ha) was 100%. The “% Weed Control ECHCG” value ([6]; 125 g ai/ha) was 10%, the “% Weed Control ECHCG” value ([6]; 250 g ai/ha) was 70% and the “% Weed Control ECHCG” value ([6]; 500 g ai/ha) was 70%. The “% Weed Control GALAP” value (Galium aparine (GALAP) [7]; 125 g ai/ha) was 0%, the “% Weed Control GALAP” value (Galium aparine (GALAP) [7]; 250 g ai/ha) was 0% and the “% Weed Control GALAP” value (Galium aparine (GALAP) [7]; 500 g ai/ha) was 0%. The “% Weed Control ALOMY” value ([8]; 125 g ai/ha) was 0%, the “% Weed Control ALOMY” value ([8]; 250 g ai/ha) was 0% and the “% Weed Control ALOMY” value ([8]; 500 g ai/ha) was 20%. For the same molecule, the “% Weed Control AVEFA” value (Avena fatua (AVEFA) [9]; 125 g ai/ha) was 0%, the “% Weed Control AVEFA” value (Avena fatua (AVEFA) [9]; 250 g ai/ha) was 30% and the “% Weed Control AVEFA” value (Avena fatua (AVEFA) [9]; 500 g ai/ha) was 30%.
`CS(=O)(=O)c1cc(C(F)(F)F)ccc1C(=O)c1cnoc1C1CC1` [Compound (IV), 5-cyclopropyl-4-(2-methylsulphonyl-4-trifluoromethyl)-benzoylisoxazole] was tested, and the “% Weed Control GALAP” value (Galium aparine (GALAP) [10]; 8 g ai/ha) was 60%, the “% Weed Control GALAP” value (Galium aparine (GALAP) [10]; 16 g ai/ha) was 60% and the “% Weed Control GALAP” value (Galium aparine (GALAP) [10]; 32 g ai/ha) was 80%. For the same molecule, the “% Weed Control ALOMY” value ([11]; 8 g ai/ha) was 10%, the “% Weed Control ALOMY” value ([11]; 16 g ai/ha) was 20% and the “% Weed Control ALOMY” value ([11]; 32 g ai/ha) was 40%.
With `O=C(Nc1ccc(F)cc1)c1cccc(Oc2cccc(C(F)(F)F)c2)n1` [(I), picolinafen] the “% Weed Control GALAP” value (Galium aparine (GALAP) [10]; 1 g ai/ha) was 10%, the “% Weed Control GALAP” value (Galium aparine (GALAP) [10]; 4 g ai/ha) was 40% and the “% Weed Control GALAP” value (Galium aparine (GALAP) [10]; 16 g ai/ha) was 90%. The “% Weed Control ALOMY” value ([11]; 1 g ai/ha) was 10%, the “% Weed Control ALOMY” value ([11]; 4 g ai/ha) was 10% and the “% Weed Control ALOMY” value ([11]; 16 g ai/ha) was 30%. For the same molecule, the “% Weed Control SETVI” value (Setaria viridis (SETVI) [1]; 1 g ai/ha) was 10%, the “% Weed Control SETVI” value (Setaria viridis (SETVI) [1]; 4 g ai/ha) was 30% and the “% Weed Control SETVI” value (Setaria viridis (SETVI) [1]; 16 g ai/ha) was 70%. The “% Weed Control ECHCG” value ([2]; 1 g ai/ha) was 10%, the “% Weed Control ECHCG” value ([2]; 4 g ai/ha) was 10% and the “% Weed Control ECHCG” value ([2]; 16 g ai/ha) was 40%. The “% Weed Control GALAP” value (Galium aparine (GALAP) [3]; 1 g ai/ha) was 10%, the “% Weed Control GALAP” value (Galium aparine (GALAP) [3]; 4 g ai/ha) was 40% and the “% Weed Control GALAP” value (Galium aparine (GALAP) [3]; 16 g ai/ha) was 90%. The “% Weed Control AVEFA” value (Avena fatua (AVEFA) [4]; 1 g ai/ha) was 10%, the “% Weed Control AVEFA” value (Avena fatua (AVEFA) [4]; 4 g ai/ha) was 20% and the “% Weed Control AVEFA” value (Avena fatua (AVEFA) [4]; 16 g ai/ha) was 40%. For the same molecule, the “% Weed Control SETVI” value (Setaria viridis (SETVI) [5]; 1 g ai/ha) was 10%, the “% Weed Control SETVI” value (Setaria viridis (SETVI) [5]; 4 g ai/ha) was 30% and the “% Weed Control SETVI” value (Setaria viridis (SETVI) [5]; 16 g ai/ha) was 70%. For the same molecule, the “% Weed Control ECHCG” value ([6]; 1 g ai/ha) was 10%, the “% Weed Control ECHCG” value ([6]; 4 g ai/ha) was 10% and the “% Weed Control ECHCG” value ([6]; 16 g ai/ha) was 40%. For the same molecule, the “% Weed Control GALAP” value (Galium aparine (GALAP) [7]; 1 g ai/ha) was 10%, the “% Weed Control GALAP” value (Galium aparine (GALAP) [7]; 4 g ai/ha) was 40% and the “% Weed Control GALAP” value (Galium aparine (GALAP) [7]; 16 g ai/ha) was 90%. The “% Weed Control ALOMY” value ([8]; 1 g ai/ha) was 10%, the “% Weed Control ALOMY” value ([8]; 4 g ai/ha) was 10% and the “% Weed Control ALOMY” value ([8]; 16 g ai/ha) was 30%. The “% Weed Control AVEFA” value (Avena fatua (AVEFA) [9]; 1 g ai/ha) was 10%, the “% Weed Control AVEFA” value (Avena fatua (AVEFA) [9]; 4 g ai/ha) was 20% and the “% Weed Control AVEFA” value (Avena fatua (AVEFA) [9]; 16 g ai/ha) was 40%.
